Source: patent publication US20240101548A1, “HYDROXAMATE COMPOUND, PREPARATION METHOD THEREFOR AND APPLICATION THEREOF” (SHENZHEN CHIPSCREEN BIOSCIENCES CO., LTD., priority 2020, published 2024)
Where two headings read alike, the source gives them in different places.

Test system: IL-10-induced JAK1/TYK2 signal pathway
Experiment: IL-10-induced JAK1/TYK2 signal pathway STAT3-Luc reporter gene assay in U2OS cells
Assay type: cell-based, human
Conditions: Homo sapiens, read-out: Half inhibition dose (IC50) on IL-10-induced JAK1/TYK2 signal pathway
How it was run: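 Luciferase read-out (560 nm) corrected by GFP signal (Ex485/Em520) gives IL-10 pathway activity, and IC50 is derived from inhibition rates. Cells were U2OS transfected with IL-10R1 plus STAT3-Luc reporter, pretreated 6 h with 0.1–300 nM compound, then stimulated 24 h with IL-10 at 10 ng/mL.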

[1] = U2OS cells, STAT3-Luc reporter, IL-10 10 ng/mL
[2] = U2OS, U2OS cells, STAT3-Luc reporter, IL-10 10 ng/mL

Row | Compound | IC50 [1] | IC50 [2] | also measured
1 | CCONC(=O)c1cnc(Nc2cc(C)nc(C)n2)cc1Nc1ccc(C(F)(F)F)cc1N(C)S(C)(=O)=O [Example 202, 6-((2,6-dimethylpyrimidin-4-yl)amino)-N-ethoxy-4-((2-(N-methylmethanesulfonamido)-4-(trifluoromethyl)phenyl)amino)nicotinamide] | 0.412 nM |  | 
2 | CCONC(=O)c1cnc(Nc2cc(C)nc(C)n2)cc1Nc1cccc(-c2ncccn2)c1OC [Example 212] |  |  | IC50 (U2OS): 0.271 nM
3 | CCONC(=O)c1cnc(Nc2cc(C)nc(C)n2)cc1Nc1cc(F)cc(-c2ncccn2)c1OC [Example 215, 6-((2,6-dimethylpyrimidin-4-yl)amino)-N-ethoxy-4-((5-fluoro-2-methoxy-3-(pyrimidin-2-yl)phenyl)amino)nicotinamide] |  | 0.102 nM | 
4 | CCONC(=O)c1cnc(NC(=O)C2CC2)cc1Nc1cccc(-c2ncc(Cl)cn2)c1OC [Example 219, 4-((3-(5-chloropyrimidin-2-yl)-2-methoxyphenyl)amino)-6-(cyclopropylcarboxamido)-N-ethoxy nicotinamide] |  | 1.09 nM | 
5 | CCONC(=O)c1cnc(Nc2cc(C)nc(C)n2)cc1Nc1cccc(-c2ncc(C)cn2)c1OC [Example 238, 6-((2,6-dimethylpyrimidin-4-yl)amino)-N-ethoxy-4-((2-methoxy-3-(5-methylpyrimidin-2-yl)phenyl)amino)nicotinamide] | 0.168 nM |  | 
